Source: paper PMC4113817, “New Hippolide Derivatives with Protein Tyrosine Phosphatase 1B Inhibitory Activity from the Marine Sponge Hippospongia lachne” (Marine Drugs, 2014)

molecular target: T1, recombinant PTP1B (catalytic domain) (Homo sapiens, UniProt P18031); test: PTP1B inhibitory assay (pNPP hydrolysis); assay type: biochemical; conditions: in vitro; pNPP substrate, 30 °C, pH 6.5
T1 construct: The enzymatic activities of the PTP1B catalytic domain were determined at 30 °C by monitoring the hydrolysis of pNPP
T1 sequence (P18031 3-277 limits assumed): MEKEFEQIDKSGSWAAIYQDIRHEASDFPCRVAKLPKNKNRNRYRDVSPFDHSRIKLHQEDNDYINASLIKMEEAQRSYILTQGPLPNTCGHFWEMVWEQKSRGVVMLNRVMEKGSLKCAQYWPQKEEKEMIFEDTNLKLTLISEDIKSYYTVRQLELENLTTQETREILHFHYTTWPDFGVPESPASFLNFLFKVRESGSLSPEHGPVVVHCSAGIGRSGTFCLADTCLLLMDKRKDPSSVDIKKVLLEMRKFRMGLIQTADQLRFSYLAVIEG
Method: The enzymatic activities of the PTP1B catalytic domain were determined at 30 °C by monitoring the hydrolysis of pNPP. Dephosphorylation of pNPP generates product pNP, which was monitored at an absorbance of 405 nm. In a typical 100 μL assay mixture containing 50 mmol/L 3-[N-morpholino] propanesulfonic acid (MOPs), pH 6.5, 2 mmol/L pNPP, and 30 nmol/L recombinant PTP1B, activities were continuously monitored and the initial rate of the hydrolysis was determined using the early linear region of the enzymatic reaction kinetic curve.

Compared with CC(C)=CCCC(C)=CCCC(C)=CCCC1=CCC2OC1NC=C2C=O (stereo not drawn) [Compound 1], CC(C)=CCCC(C)=CCCC(C)=CCCC1=CCC(O)C2(C(N)=O)CC(=O)OC12 (stereo not drawn) [Compound 2] is higher in IC50: 5.2 µM for the first, greater than 50 µM for the second. The first is the more potent here.

Going from CC(C)=CCCC(C)=CCCC(C)=CCCC1=CCC(O)C2(C(=O)O)CC(=O)NC12 (stereo not drawn) [Compound 3] to CC(C)=CCC/C(C)=C/CC/C(C)=C/CCc1ccc(O)c(CC(=O)O)c1 [Compound 4], the IC50 falls from 33 µM to 14 µM (2.4-fold).

CC(C)=CCC/C(C)=C/CC/C(C)=C/CC\C(C=O)=C/C=C/C(C=O)=C/N [Compound 5] was tested, and the IC50 was 8.7 µM.

test system: HCT-116 cell line; test: cytotoxicity against HCT-116 cancer cell line; assay type: cell-based; conditions: Homo sapiens

Work on CC(C)=CCCC(C)=CCCC(C)=CCCC1=CCC2OC1NC=C2C=O (stereo not drawn) [Compound 1] yielded an IC50 of 11.6 µM.
